The record followed here is patent US6958352B2, “Compounds for inhibiting insulin secretion and methods related thereto” (SmithKline Beecham Corporation, priority 2002, dated 2005).

Read-outs that look alike come from different tables or passages of the source. A value given as a limit tells only on which side of the number the result lay.

Experiment [1] has as its target T1, mitochondrial calcium/sodium antiporter (Rattus norvegicus, UniProt Q6AXS0).
T1 sequence (Q6AXS0 1-585): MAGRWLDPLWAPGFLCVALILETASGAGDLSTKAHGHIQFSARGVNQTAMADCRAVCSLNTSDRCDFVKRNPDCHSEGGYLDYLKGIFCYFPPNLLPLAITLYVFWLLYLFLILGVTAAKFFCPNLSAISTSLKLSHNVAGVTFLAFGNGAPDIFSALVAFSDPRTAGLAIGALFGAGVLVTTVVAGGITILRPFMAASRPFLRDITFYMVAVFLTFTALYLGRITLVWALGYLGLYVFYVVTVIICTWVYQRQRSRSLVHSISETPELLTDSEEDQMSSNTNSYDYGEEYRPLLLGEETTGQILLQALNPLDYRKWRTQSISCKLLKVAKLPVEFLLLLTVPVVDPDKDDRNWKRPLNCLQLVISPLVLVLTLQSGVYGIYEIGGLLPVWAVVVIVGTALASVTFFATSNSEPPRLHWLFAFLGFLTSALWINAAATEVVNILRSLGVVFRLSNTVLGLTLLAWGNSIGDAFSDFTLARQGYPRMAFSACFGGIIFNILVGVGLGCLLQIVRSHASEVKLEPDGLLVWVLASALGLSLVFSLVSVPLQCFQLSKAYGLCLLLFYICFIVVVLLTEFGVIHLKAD
As to the kind of experiment: Inhibition of mitochondrial calcium/sodium antiporter activity (NaCl-induced mitochondrial calcium efflux, calcium green 5N fluorescence). To be noted: digitonin-permeabilized INS-1 cells, 20 mM NaCl. It counts as cell-based. Here is the method:
INS-1 rat insulinoma cells (see Example 16) were harvested by trypsinization, washed and resuspended at 10×10^6 cells/ml in assay buffer (250 mM sucrose, 10 mM HEPES, 2.5 mM K2HPO4, 5 mM succinate, pH 7.4) containing 0.007% digitonin, 60 μM CaCl2 and 0.05 μM calcium green 5N (Molecular Probes, Inc., Eugene, Oreg.). After a five-minute calcium loading incubation, ruthenium red (1 μM; Sigma, St. Louis, Mo.) was added to block further calcium uptake by mitochondria. Cell suspensions were dispensed into 96-well plates (100 μl per well, 1×10^6 cells per well) and candidate agents (i.e., candidate mitochondrial calcium/sodium antiporter inhibitors) were added to some sets of triplicate wells at concentrations of 1, 10 or 100 μM, while other sets of wells provided appropriate control conditions (e.g., buffer and vehicle controls). Baseline fluorescence measurements were made using a multiwell plate fluorimeter (F-MAX™, Molecular Devices Corp., Sunnyvale, Calif.; or PolarStar™, BMG Labtechnologies, Inc., Durham, N.C.) according to the manufacturer's instructions. Calcium efflux from mitochondria was then induced by adding NaCl to all wells to achieve a final concentration of 20 mM, and the rate of change in fluorescence in each well was monitored […] for two minutes and quantified using software included with the plate reader.

Experiment [2] deals with C57BLKs-db/db mice. Briefly: Glucose tolerance in mutant db/db mice after oral administration. It counts as in vivo, mouse. To be noted: 100 mg/kg orally one hour before 1 gm glucose/kg i.p.; relative to vehicle control; p<0.05. The text has this: This Example illustrates the effects of a representative compound on glucose tolerance in an established animal model of type II diabetes mellitus, the db/db mutant mouse. As a brief background, the recessive db mutation has been localized to murine chromosome 4, and homozygous recessive (db/db) individuals are characterized by, inter alia, obesity, hyperphagia, transient increases in plasma insulin concentrations, hyperglycemia, abnormal immune and renal functions, diabetic neuropathy and myocardial disease (see, e.g., Hummel et al., 1966 Science 153:1127; Herberg et al., 1977 Metabolism 26:59; Leiter et al., 1981 Metabolism 30:554; Guenet et al., 1982 Mouse News Letter 67:30; Guenet et al., 1984 Mouse News Letter 70:95; Bray et al., 1971 Physiol. Rev. 51:598; Bailey et al., 1989 J. Endocrinol. 123:19-24; Bray et al., 1979 Physiol. Rev. 59:719; Sima et al., 1979 Lab. Invest. 40:627; Sima et al., 1978 Acta Nettropathol. […]
16o (dissolved in vehicle: 10% (v/v) EtOH, 10% (v/v) polyethylene glycol-400, 30% (v/v) propylene glycol, 50% (v/v) H2O) was administered orally at a dosage of 100 mg/kg body weight to eight-week old mutant C57BLKs-db/db mice (Harlan Bioproducts for Science, Inc., Indianapolis, Ind.). […] Glucose concentrations in each blood sample were determined using OneTouch® glucose test strips (LifeScan, Inc., Milpitas, Calif.) according to the manufacturer's instructions. […]

The mark [3] stands for this setting: Table 3, more preferred compounds, read-out: IC50 ≦ 1 μM.
The mark [4] stands for this setting: Table 2, preferred compounds, read-out: IC50 ≦ 10 μM.

What is called IC50 is the concentration needed to halve the response being measured. As for `COc1cc(C(=O)NCCSC(c2cc(Cl)ccc2N)C2CCCCC2)cc(OC)c1OC` (stereo not shown) [Compound 16o], the IC50 in experiment [1] (setting [3]) was no more than 1 µM. For the same compound, in experiment [2], the “peak blood glucose levels after the glucose bolus” value is given as “lower peak blood glucose levels” and the “return of blood glucose to baseline” value is reported as “returned to a lower baseline more rapidly”.
With `COC(=O)CSCC(c1ccccc1)c1cc(Cl)ccc1N` (stereo not shown) [Compound 20d], the IC50 in experiment [1] (setting [4]) was no more than 10 µM; in experiment [1] (setting [3]), no more than 1 µM.
Turning to `NC(=O)CSCC(c1cc(Cl)ccc1N)c1ccccc1Cl` (stereo not shown) [Compound 21a], the IC50 in experiment [1] (setting [4]) was no more than 10 µM.
Take `NC(=O)CSCC(c1ccccc1)c1cc(Cl)ccc1N` (stereo not shown) [Compound 21d]: the IC50 was no more than 10 µM in experiment [1] (setting [4]) and no more than 1 µM in experiment [1] (setting [3]).
As for `CNC(=O)CSCC(c1cc(Cl)ccc1N)c1ccccc1Cl` (stereo not shown) [Compound 21e], the IC50 in experiment [1] (setting [4]) was no more than 10 µM; in experiment [1] (setting [3]), no more than 1 µM.
With `CNC(=O)CSCC(c1cc(Cl)ccc1N)c1ccccc1F` (stereo not shown) [Compound 21f], the figures for the IC50 in experiment [1] (setting [4]) and in experiment [1] (setting [3]) were no more than 10 µM and no more than 1 µM, respectively.
With `CNC(=O)CSCC(c1cc(Br)ccc1N)c1ccccc1F` (stereo not shown) [Compound 21g], the IC50 in experiment [1] (setting [4]) was no more than 10 µM.
Turning to `CNC(=O)CSCC(c1ccccc1)c1cc(Cl)ccc1N` (stereo not shown) [Compound 21h], the IC50 in experiment [1] (setting [4]) is no more than 10 µM; in experiment [1] (setting [3]) it was no more than 1 µM.
With `Cc1noc(CSCC(c2cc(Cl)ccc2N)c2ccccc2Cl)n1` (stereo not shown) [Compound 22a], the IC50 is no more than 10 µM in experiment [1] (setting [4]) and no more than 1 µM in experiment [1] (setting [3]).
With `Cc1noc(CSCC(c2cc(Cl)ccc2N)c2ccccc2F)n1` (stereo not shown) [Compound 22b], the values for the IC50 in experiment [1] (setting [4]) and in experiment [1] (setting [3]) were no more than 10 µM and no more than 1 µM, respectively.
Regarding `Cc1noc(CSCC(c2cc(Br)ccc2N)c2ccccc2F)n1` (stereo not shown) [Compound 22c], the IC50 in experiment [1] (setting [4]) is no more than 10 µM.
As to `Cc1noc(CSCC(c2ccccc2)c2cc(Cl)ccc2N)n1` (stereo not shown) [Compound 22d], the IC50 in experiment [1] (setting [4]) was no more than 10 µM; in experiment [1] (setting [3]), no more than 1 µM.
In the case of `COC(=O)C(c1cccc(Cl)c1)c1ccccc1[N+](=O)[O-]` (stereo not shown) [Compound 25a], the IC50 in experiment [1] (setting [4]) was no more than 10 µM.
In the case of `CCOC(=O)C(c1ccccc1C)c1ccccc1[N+](=O)[O-]` (stereo not shown) [Compound 25b], the IC50 was no more than 10 µM in experiment [1] (setting [4]) and no more than 1 µM in experiment [1] (setting [3]).
`COC(=O)C(c1ccccc1)c1ccccc1[N+](=O)[O-]` (stereo not shown) [Compound 25c]: the IC50 in experiment [1] (setting [4]) was no more than 10 µM.
Regarding `COC(=O)C(c1ccccc1[N+](=O)[O-])c1cccc2ccccc12` (stereo not shown) [Compound 25d], the IC50 in experiment [1] (setting [4]) is no more than 10 µM; in experiment [1] (setting [3]) it was no more than 1 µM.
Take `CNC(=O)C(c1cccc(Cl)c1)c1ccccc1[N+](=O)[O-]` (stereo not shown) [Compound 26a]: in experiment [1] (setting [4]), the IC50 is no more than 10 µM.
In the case of `O=C(NCCc1ccccc1)C(c1cccc(Cl)c1)c1ccccc1[N+](=O)[O-]` (stereo not shown) [Compound 26b], the IC50 is no more than 10 µM in experiment [1] (setting [4]) and no more than 1 µM in experiment [1] (setting [3]).
Regarding `O=[N+]([O-])c1ccccc1C(CNCCc1ccccc1)c1cccc(Cl)c1` (stereo not shown) [Compound 27b], the IC50 was no more than 1 µM in experiment [1] (IC50 ≦ 1 μM, Table 3, more preferred compounds) and no more than 10 µM in experiment [1] (IC50 ≦ 10 μM, Table 2, preferred compounds).
Regarding `COC(=O)CN(C)CC(c1cccc(Cl)c1)c1ccccc1[N+](=O)[O-]` (stereo not shown) [Compound 28a], in experiment [1] (setting [4]), the IC50 was no more than 10 µM.
On to `COC(=O)CSC(c1ccccc1C)c1ccccc1NC(=O)c1ccccc1` (stereo not shown) [Compound 34c], for which, in experiment [1] (setting [4]), the IC50 is no more than 10 µM.
For the compound `CNCCSCC(c1cc(Cl)ccc1N)c1ccccc1F` (stereo not shown) [Compound 35f], the IC50 in experiment [1] (setting [4]) is no more than 10 µM.
As for `Nc1ccc(Br)cc1C(CSCc1nc2ccccc2[nH]1)c1ccccc1F` (stereo not shown) [Compound 37a], in experiment [1] (setting [4]), the IC50 was no more than 10 µM.
`Cc1noc(C[S+]([O-])CC(c2cc(Cl)ccc2N)c2ccccc2Cl)n1` (stereo not shown) [Compound 38a]: the IC50 in experiment [1] (setting [4]) was no more than 10 µM.
For the compound `Nc1ccc(Cl)cc1C(c1ccccc1Cl)[S+]([O-])CC(=O)NCC(c1ccccc1)c1ccccc1` (stereo not shown) [Compound 38c], the IC50 in experiment [1] (setting [4]) is no more than 10 µM; in experiment [1] (setting [3]), no more than 1 µM.
Regarding `COc1ccc(S(=O)(=O)N2CCC(CSC(c3cc(Cl)ccc3N)C3CCCCC3)CC2)cc1OC` (stereo not shown) [Compound 40], the IC50 in experiment [1] (setting [3]) is no more than 1 µM.
Take `COc1cc(C(=O)N2CCC(CSC(c3cc(Cl)ccc3N)C3CCCCC3)CC2)cc(OC)c1OC` (stereo not shown) [Compound 41a]: the IC50 in experiment [1] (setting [4]) was no more than 10 µM.
Consider `COc1cc(C(=O)N2CCC(CSC(c3cc(F)ccc3N)C3CCCCC3)CC2)cc(OC)c1OC` (stereo not shown) [Compound 41b], for which the IC50 in experiment [1] (setting [3]) was no more than 1 µM.
